Among the data in PMC6704710, “Preclinical evaluation of 3D185, a novel potent inhibitor of FGFR1/2/3 and CSF-1R, in FGFR-dependent and macrophage-dominant cancer models” (Journal of Experimental & Clinical Cancer Research : CR, 2019) are IC50 and inhibition values, retold here.

Some results are limits rather than exact numbers.

The target in one assay is FGFR1(V561M)(h) (Homo sapiens, UniProt P11362, V561M). Nature of the assay: Eurofins kinase panel. Type of assay: biochemical.
Another assay concerns the target T1, ALK2(h) (Homo sapiens, UniProt Q04771).
T1 construct: purchased Eurofins (KinaseProfiler)
T1 sequence (Q04771 21-509): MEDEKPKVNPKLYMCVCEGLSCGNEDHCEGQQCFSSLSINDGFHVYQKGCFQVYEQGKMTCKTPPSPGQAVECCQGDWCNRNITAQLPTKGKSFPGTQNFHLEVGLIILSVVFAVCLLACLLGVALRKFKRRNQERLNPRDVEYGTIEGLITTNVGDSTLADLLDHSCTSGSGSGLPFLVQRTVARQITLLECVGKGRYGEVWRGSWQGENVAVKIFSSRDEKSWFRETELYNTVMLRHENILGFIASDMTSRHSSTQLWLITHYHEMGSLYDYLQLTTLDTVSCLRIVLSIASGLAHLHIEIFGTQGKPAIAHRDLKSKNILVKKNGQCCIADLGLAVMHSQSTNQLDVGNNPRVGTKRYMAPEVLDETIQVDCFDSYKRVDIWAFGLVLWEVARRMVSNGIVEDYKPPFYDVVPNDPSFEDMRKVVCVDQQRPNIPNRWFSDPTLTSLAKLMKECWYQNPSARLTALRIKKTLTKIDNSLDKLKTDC
Nature of the assay: Eurofins kinase panel. The class given is biochemical. Particulars: read-out: Inhibition rate (%).

Another assay concerns the target T2, ICK(h) (Homo sapiens, UniProt Q9UPZ9).
T2 construct: purchased Eurofins (KinaseProfiler)
T2 sequence (Q9UPZ9 1-632): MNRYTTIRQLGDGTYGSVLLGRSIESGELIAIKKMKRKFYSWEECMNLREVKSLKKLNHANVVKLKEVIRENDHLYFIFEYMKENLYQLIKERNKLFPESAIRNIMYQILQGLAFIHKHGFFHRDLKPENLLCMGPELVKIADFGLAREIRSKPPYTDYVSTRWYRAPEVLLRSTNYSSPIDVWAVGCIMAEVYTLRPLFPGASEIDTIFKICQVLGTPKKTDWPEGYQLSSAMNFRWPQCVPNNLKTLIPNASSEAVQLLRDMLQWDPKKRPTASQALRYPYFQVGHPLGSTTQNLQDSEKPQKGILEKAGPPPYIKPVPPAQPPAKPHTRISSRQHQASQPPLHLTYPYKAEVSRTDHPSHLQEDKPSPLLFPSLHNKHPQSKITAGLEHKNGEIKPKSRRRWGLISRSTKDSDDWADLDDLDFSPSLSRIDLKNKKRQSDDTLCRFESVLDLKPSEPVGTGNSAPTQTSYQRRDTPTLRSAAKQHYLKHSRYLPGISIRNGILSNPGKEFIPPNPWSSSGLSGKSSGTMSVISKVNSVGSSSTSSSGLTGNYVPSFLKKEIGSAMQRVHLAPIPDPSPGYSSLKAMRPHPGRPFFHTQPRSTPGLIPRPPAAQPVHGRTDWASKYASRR
Description: Eurofins kinase panel. Type of assay: biochemical. The conditions noted are these: read-out: Inhibition rate (%).

The next assay deals with T3, CDK13/cyclinK(h) (Homo sapiens, UniProt Q14004).
T3 construct: purchased Eurofins (KinaseProfiler)
Nature of the assay: Eurofins kinase panel. Type of assay: biochemical. The conditions noted are these: read-out: Inhibition rate (%). The method, then:
(§1) Active FGFR1–4, VEGFR1, KDR, VEGFR3, PDGFRα and PDGFRβ proteins were purchased from Eurofins (Fremont, United States), and kinase activity was assessed using ELISA, as previously reported. The broader kinase selectivity profile of 3D185 (0.01, 0.1, and 1 μM) was determined by Eurofins by screening the compound against 372 human recombinant kinases. Increasing concentrations of ATP were diluted for the kinase reaction in the ATP competition assay. CSF-1R kinase activity was analyzed using the Z’-LYTE™ Kinase Assay Kit (Thermo Fisher, United States). The assay formats are described in the SelectScreen Kinase Profiling Service Zlyte protocol. IC50 values were calculated by dose-response curve fitting using Prism (Graph Pad).

The target in another assay is T4, PRP4(h) (Homo sapiens, UniProt Q13523).
T4 construct: purchased Eurofins (KinaseProfiler)
Nature of the assay: Eurofins kinase panel. Type of assay: biochemical. Particulars: read-out: Inhibition rate (%). The method, then: as §1

For the next assay, the target named is T5, TSSK4(h) (Homo sapiens, UniProt Q6SA08).
T5 construct: purchased Eurofins (KinaseProfiler)
T5 sequence (Q6SA08 1-328): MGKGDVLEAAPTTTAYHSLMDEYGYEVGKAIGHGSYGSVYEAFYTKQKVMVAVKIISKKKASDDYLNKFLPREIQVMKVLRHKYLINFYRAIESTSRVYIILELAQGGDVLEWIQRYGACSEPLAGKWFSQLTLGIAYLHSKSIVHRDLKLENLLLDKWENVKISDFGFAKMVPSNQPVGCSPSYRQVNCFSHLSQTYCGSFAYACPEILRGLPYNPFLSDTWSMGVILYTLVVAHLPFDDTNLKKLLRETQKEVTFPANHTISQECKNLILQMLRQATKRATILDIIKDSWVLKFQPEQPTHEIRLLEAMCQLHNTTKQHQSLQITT
Description: Eurofins kinase panel. Type of assay: biochemical. Particulars: read-out: Inhibition rate (%).

Assay [1] relates to VEGF-induced primary HUVECs. Nature of the assay: VEGF-induced HUVEC proliferation (CCK-8). Type of assay: cell-based. Particulars: Homo sapiens, VEGF 100 ng/mL, 48 h. How it is done:
Fig. 1 3D185 is a dual FGFR1/2/3 and CSF-1R inhibitor with high selectivity. a Chemical structure of 3D185. […]. H, A broad kinase profile of 3D185 against 372 protein kinases. […]. Representative data from three independent experiments are shown
The cancer cell lines indicated in Figure 3 were seeded in 96-well plates at a low density in growth medium. The next day, appropriate controls or the designated concentrations of the compounds were added to each well, and the cells were incubated for 72 h. HUVECs (passage 3) were seeded in 96-well plates in growth medium overnight and transferred to serum-free medium for 24 h. The following day, appropriate controls or the designated concentrations of the compounds were added to each well, and 100 ng/mL growth factor (bFGF or VEGF) was added to the indicated wells. The cells were incubated for 48 h. Finally, cell proliferation was determined using a sulforhodamine B (SRB) assay or a cell counting kit-8 (CCK-8) assay. […] IC50 values for proliferation curves were calculated using a 4-parameter logistic nonlinear regression model with SoftMax Pro Software (Molecular Devices, San Jose, USA).

FGFR1(V561M)(h), sequence (P11362 22-822 V561M): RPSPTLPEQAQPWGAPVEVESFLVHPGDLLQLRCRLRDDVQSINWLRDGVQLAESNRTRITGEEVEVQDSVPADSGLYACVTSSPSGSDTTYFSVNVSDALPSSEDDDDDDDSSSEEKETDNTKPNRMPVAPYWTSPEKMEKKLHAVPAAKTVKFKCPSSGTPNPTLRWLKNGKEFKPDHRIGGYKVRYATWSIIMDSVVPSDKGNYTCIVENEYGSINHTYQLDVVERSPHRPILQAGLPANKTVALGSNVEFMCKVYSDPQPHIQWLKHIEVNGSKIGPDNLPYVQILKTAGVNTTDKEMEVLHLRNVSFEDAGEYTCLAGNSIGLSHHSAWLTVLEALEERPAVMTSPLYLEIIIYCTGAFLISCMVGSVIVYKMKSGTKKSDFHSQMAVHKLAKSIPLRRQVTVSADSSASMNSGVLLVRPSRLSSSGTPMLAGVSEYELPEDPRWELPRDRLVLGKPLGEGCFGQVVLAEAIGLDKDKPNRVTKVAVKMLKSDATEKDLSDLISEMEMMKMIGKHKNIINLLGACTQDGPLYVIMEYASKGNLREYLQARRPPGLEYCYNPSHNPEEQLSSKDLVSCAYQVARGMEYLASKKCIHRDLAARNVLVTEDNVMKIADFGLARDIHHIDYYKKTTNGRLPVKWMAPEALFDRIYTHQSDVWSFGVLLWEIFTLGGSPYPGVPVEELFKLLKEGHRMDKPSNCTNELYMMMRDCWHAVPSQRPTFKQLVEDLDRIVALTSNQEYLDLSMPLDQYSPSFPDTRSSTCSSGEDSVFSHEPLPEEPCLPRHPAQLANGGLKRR
T4 sequence (Q13523 whole entry): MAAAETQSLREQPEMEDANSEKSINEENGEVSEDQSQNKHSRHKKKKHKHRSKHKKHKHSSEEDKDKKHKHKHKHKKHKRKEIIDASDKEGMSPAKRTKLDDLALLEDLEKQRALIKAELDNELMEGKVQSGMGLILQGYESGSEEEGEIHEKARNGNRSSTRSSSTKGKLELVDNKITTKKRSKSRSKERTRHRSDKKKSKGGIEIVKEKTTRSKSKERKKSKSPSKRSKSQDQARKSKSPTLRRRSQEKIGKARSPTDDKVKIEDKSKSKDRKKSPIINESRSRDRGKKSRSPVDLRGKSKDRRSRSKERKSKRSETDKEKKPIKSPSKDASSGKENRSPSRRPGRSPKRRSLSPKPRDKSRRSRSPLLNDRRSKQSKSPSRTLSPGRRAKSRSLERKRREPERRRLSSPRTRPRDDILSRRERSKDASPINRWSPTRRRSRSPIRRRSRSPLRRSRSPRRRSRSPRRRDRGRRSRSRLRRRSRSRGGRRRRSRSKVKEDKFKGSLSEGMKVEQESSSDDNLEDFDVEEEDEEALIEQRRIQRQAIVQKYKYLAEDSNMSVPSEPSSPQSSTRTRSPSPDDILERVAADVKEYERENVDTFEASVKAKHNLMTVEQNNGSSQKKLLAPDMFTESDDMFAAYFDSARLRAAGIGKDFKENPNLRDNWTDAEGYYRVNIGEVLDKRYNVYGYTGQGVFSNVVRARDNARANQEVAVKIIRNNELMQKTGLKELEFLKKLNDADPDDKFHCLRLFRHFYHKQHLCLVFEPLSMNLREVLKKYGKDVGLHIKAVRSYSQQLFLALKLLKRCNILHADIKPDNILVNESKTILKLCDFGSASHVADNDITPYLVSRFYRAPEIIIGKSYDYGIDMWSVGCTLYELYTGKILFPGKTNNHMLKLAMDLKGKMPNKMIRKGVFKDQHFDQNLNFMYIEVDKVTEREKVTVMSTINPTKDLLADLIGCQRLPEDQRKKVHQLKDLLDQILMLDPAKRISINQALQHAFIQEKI
T3 sequence (Q14004 whole entry): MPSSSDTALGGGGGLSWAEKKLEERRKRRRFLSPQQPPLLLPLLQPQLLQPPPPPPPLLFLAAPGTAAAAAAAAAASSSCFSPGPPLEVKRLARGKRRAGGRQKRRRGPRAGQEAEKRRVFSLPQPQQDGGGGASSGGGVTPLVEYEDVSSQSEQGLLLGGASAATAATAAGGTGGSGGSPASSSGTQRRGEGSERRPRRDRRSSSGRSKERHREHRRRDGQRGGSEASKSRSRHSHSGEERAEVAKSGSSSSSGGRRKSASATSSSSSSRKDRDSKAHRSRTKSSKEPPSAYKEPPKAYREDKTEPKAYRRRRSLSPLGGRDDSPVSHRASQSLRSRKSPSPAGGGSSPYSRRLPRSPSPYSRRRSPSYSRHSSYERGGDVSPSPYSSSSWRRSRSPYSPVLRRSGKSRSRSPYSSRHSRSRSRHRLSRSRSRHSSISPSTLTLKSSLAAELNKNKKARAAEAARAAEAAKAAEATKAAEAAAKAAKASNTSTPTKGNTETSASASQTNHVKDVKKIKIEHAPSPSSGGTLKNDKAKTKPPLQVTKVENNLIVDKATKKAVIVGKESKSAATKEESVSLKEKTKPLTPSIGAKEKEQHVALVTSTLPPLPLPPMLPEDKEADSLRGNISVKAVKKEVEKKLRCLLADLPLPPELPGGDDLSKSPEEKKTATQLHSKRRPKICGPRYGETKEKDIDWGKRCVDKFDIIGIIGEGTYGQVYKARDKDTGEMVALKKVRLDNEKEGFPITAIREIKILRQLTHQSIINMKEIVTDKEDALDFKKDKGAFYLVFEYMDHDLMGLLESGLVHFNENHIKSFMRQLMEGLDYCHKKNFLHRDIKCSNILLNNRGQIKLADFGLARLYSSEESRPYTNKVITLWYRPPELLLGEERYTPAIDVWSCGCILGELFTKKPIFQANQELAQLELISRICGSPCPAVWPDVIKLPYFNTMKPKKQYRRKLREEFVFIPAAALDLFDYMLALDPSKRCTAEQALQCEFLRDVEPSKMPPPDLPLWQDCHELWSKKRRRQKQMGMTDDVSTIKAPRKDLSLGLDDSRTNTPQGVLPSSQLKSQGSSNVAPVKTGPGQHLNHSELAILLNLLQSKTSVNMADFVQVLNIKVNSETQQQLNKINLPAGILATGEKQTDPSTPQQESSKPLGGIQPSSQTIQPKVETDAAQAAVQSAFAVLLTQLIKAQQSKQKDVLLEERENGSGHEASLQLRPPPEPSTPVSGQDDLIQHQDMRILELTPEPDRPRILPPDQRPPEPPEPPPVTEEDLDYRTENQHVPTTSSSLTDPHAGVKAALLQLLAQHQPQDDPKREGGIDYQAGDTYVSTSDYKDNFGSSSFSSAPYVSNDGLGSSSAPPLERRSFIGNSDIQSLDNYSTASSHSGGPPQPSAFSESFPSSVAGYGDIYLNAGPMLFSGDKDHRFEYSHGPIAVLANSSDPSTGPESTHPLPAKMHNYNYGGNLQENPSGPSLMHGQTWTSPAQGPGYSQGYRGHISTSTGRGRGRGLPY
T3 sequence (O75909 whole entry partner): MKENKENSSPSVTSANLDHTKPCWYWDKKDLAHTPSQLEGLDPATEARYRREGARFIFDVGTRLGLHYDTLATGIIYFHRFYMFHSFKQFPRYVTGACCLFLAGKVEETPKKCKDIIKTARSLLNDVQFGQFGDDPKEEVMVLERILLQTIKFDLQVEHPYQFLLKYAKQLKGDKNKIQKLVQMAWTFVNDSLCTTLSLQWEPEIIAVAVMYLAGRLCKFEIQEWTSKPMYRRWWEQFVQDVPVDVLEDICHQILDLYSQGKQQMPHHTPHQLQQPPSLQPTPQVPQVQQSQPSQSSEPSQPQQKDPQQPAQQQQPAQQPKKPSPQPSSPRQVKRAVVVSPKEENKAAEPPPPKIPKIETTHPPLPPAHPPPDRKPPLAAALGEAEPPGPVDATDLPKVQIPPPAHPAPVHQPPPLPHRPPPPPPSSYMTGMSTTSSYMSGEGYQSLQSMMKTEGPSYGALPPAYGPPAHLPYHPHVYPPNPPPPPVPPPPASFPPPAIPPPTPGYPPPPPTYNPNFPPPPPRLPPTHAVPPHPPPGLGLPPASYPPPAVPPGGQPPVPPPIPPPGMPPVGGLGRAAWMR

In general, IC50 refers to the concentration at which inhibition is half-maximal. By inhibition is commonly meant the drop in the measured response relative to a control, in per cent. In the case of `COc1cc(OC)c(Cl)c(-c2ccc3c(NC(=O)c4ccc(N5CCNC(C)(C)C5)cc4)n[nH]c3n2)c1Cl` [3D185], the IC50 on FGFR1(V561M)(h) (estimated from 372-kinase panel) was < 10 nM; in assay [1], 88.1 nM. Also, the inhibition at 0.01 µM on FGFR1(V561M)(h) (read-out: Inhibition rate (%)) was 58%; on ALK2(h) (10 nM), -10%; on ICK(h) (10 nM), -10%; on CDK13/cyclinK(h) (10 nM) it was -16%; on PRP4(h) (10 nM), -8%; on TSSK4(h) (10 nM), -6%. The inhibition at 0.1 µM is 94% on FGFR1(V561M)(h) (read-out: Inhibition rate (%)); -15% on ALK2(h) (100 nM); -5% at ICK(h) (100 nM); 8% at CDK13/cyclinK(h) (100 nM); -9% on PRP4(h) (100 nM); -10% at TSSK4(h) (100 nM). Besides, the inhibition at 1 µM at FGFR1(V561M)(h) (read-out: Inhibition rate (%)) was 100%; at ALK2(h) (1000 nM), -4%; at ICK(h) (1000 nM), 4%; on CDK13/cyclinK(h) (1000 nM), 1%; at PRP4(h) (1000 nM) it was -1%; at TSSK4(h) (1000 nM), -9%.
